The results in this text go back to PMC7531004, “Discovery of gramicidin A analogues with altered activities by multidimensional screening of a one-bead-one-compound library” (Nature Communications, 2020).

The nature of series [1]: H+/Na+ transport assay of bead-derived peptides (one-point).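 Further: relative to parent gramicidin A activity set to 1.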 The series is classed as biochemical. Set-up: key: relative activity; mean of two control wells = 1.00. As to conditions: bead-derived peptide solution, EYPC/EYPG LUVs. A digest of the protocol:
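H+/Na+ transport is monitored through pyranine fluorescence in freshly extruded LUVs after a 30-min room-temperature vortex with each library peptide at a single concentration. Signals are normalized to detergent (Triton X-100) and untreated controls.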

For series [2] the following is noted: cell viability/%. A digest of the protocol:
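Peptide stocks diluted 250× in growth medium; P388 cells 1 × 10^4 cells/mL final; 37 °C, 5% CO2, 92 h. WST-1 + 1-methoxy PMS, 4 h, A415. Output: % viability.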

The subject of series [3] is Streptococcus pyogenes SSI-9. Description: Antibacterial activity assay of bead-derived peptides (three concentrations). The series is classed as cell-based. Set-up: key: +++: inhibition by the 640-fold diluted peptide solution; ++: inhibition by the 160-fold diluted solution; +: inhibition by the 40-fold diluted solution; -: no inhibition. The note with it: S. pyogenes, bead-derived peptide solution, three concentrations. In short, it runs like this:
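Growth inhibition scored visually as precipitated bacteria after 37 °C, 18 h incubation. Streptococcus pyogenes SSI-9 inoculum of 2 × 10^5 CFU in Ca2+/Mg2+-adjusted Mueller Hinton broth plus 5% laked horse blood; peptides tested at three levels: stock, 4-fold and 16-fold DMSO dilutions.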

Where a SMILES comes first, the peptide text is derived from it. [ ]: non-standard residue; d: D form. The star is where a group is joined. NHCH2CH2OH = OCCN*; For = O=C*

With `CC(C)C[C@@H](NC(=O)[C@H](C)NC(=O)CNC(=O)[C@@H](NC=O)C(C)C)C(=O)N[C@@H](C)C(=O)N[C@@H](C(=O)N[C@H](C(=O)N[C@@H](C(=O)N[C@@H](Cc1c[nH]c2ccccc12)C(=O)N[C@H](CC(C)C)C(=O)N[C@@H](Cc1c[nH]c2ccccc12)C(=O)N[C@@H](C(=O)N[C@@H](Cc1c[nH]c2ccccc12)C(=O)N[C@H](CC(C)C)C(=O)N[C@@H](Cc1c[nH]c2ccccc12)C(=O)NCCO)C(C)C)[C@H](C)O)C(C)C)C(C)C` [compound 1711] (For-VGA[dL]A[dV]V[dT]W[dL]W[dV]W[dL]W-NHCH2CH2OH), the “H+/Na+ transport activity normalized against the value of 1 (1.00)” value (“H+/Na+ transport activity normalized” below) in series [1] was 1.01. Further, the viability (as a rule, a read-out of living cells in per cent, often relative to untreated cells) in series [2] was determined as 100%. Further, the antibacterial activity result in series [3] is “-”.

Consider `CNC(=O)C[C@@H](NC(=O)[C@H](C)NC(=O)[C@@H](CC(C)C)NC(=O)[C@H](C)NC(=O)CNC(=O)[C@@H](NC=O)C(C)C)C(=O)N[C@H](C(=O)N[C@@H](C(=O)N[C@@H](Cc1c[nH]c2ccccc12)C(=O)N[C@H](CC(C)C)C(=O)N[C@@H](Cc1c[nH]c2ccccc12)C(=O)N[C@H](CC(C)C)C(=O)N[C@@H](Cc1c[nH]c2ccccc12)C(=O)N[C@@H](C(=O)N[C@@H](Cc1c[nH]c2ccccc12)C(=O)NCCO)C(C)C)C(C)C)C(C)C` [compound 346] (For-VGA[dL]A[dD](NHMe)V[dV]W[dL]W[dL]W[dV]W-NHCH2CH2OH), for which the “H+/Na+ transport activity normalized” value in series [1] was determined as 1.12. In series [2], this molecule had a viability of 100%. For the same molecule, in series [3], the antibacterial activity result is listed as “-”.

Regarding `CNC(=O)C[C@@H](NC(=O)[C@@H](NC(=O)[C@@H](CC(C)C)NC(=O)[C@H](C)NC(=O)[C@@H](CC(C)C)NC(=O)[C@H](C)NC(=O)CNC(=O)[C@@H](NC=O)C(C)C)C(C)C)C(=O)N[C@@H](Cc1c[nH]c2ccccc12)C(=O)N[C@H](CC(C)C)C(=O)N[C@@H](Cc1c[nH]c2ccccc12)C(=O)N[C@H](CC(C)C)C(=O)N[C@@H](Cc1c[nH]c2ccccc12)C(=O)N[C@@H](C(=O)N[C@@H](Cc1c[nH]c2ccccc12)C(=O)NCCO)C(C)C` [compound 4186] (For-VGA[dL]A[dL]V[dD](NHMe)W[dL]W[dL]W[dV]W-NHCH2CH2OH), in series [1], the “H+/Na+ transport activity normalized” value came to 1.44. Moreover, the viability in series [2] turned out to be 98.7%. Also, the antibacterial activity entry in series [3] is listed as “-”.

For `CC(C)C[C@@H](NC(=O)[C@H](C)NC(=O)[C@H](NC(=O)[C@H](C)NC(=O)CNC(=O)[C@@H](NC=O)C(C)C)[C@H](C)O)C(=O)N[C@H](C(=O)N[C@H](CC(C)C)C(=O)N[C@@H](Cc1c[nH]c2ccccc12)C(=O)N[C@@H](C(=O)N[C@@H](Cc1c[nH]c2ccccc12)C(=O)N[C@@H](C(=O)N[C@@H](Cc1c[nH]c2ccccc12)C(=O)N[C@@H](C(=O)N[C@@H](Cc1c[nH]c2ccccc12)C(=O)NCCO)C(C)C)C(C)C)[C@H](C)O)C(C)C` [compound 2139] (For-VGA[dT]A[dL]V[dL]W[dT]W[dV]W[dV]W-NHCH2CH2OH), in series [1], the “H+/Na+ transport activity normalized” value is 1.05. In series [2], this molecule had a viability of 100%. The antibacterial activity entry in series [3] is “-”.

Turning to `CNC(=O)C[C@@H](NC(=O)[C@@H](NC(=O)[C@@H](CC(C)C)NC(=O)[C@H](C)NC(=O)[C@@H](CC(C)C)NC(=O)[C@H](C)NC(=O)CNC(=O)[C@@H](NC=O)C(C)C)C(C)C)C(=O)N[C@@H](Cc1c[nH]c2ccccc12)C(=O)N[C@@H](C(=O)N[C@@H](Cc1c[nH]c2ccccc12)C(=O)N[C@H](CC(C)C)C(=O)N[C@@H](Cc1c[nH]c2ccccc12)C(=O)N[C@@H](C(=O)N[C@@H](Cc1c[nH]c2ccccc12)C(=O)NCCO)[C@H](C)O)C(C)C` [compound 3280] (For-VGA[dL]A[dL]V[dD](NHMe)W[dV]W[dL]W[dT]W-NHCH2CH2OH), the “H+/Na+ transport activity normalized” value in series [1] is 1.20. The molecule further gave a viability in series [2] of 100%. Besides, the antibacterial activity entry in series [3] is on record as “-”.
